{"source": "patent US9060945B2", "about": "“Use of danielone and derivatives thereof in skin care” (DSM IP Assets B.V., priority 2012, dated 2015)", "assay_type_in_all_cases": "cell-based", "key": {"[1]": {"system": "Normal human melanocytes moderately pigmented (HEMn-MP)", "experiment": "Cytotoxicity, MTT assay", "details": "3 days incubation, OD 550 nm", "experimental": "Cytotoxicity was measured using the MTT assay (Roche). In brief: Normal human melanocytes moderately pigmented (HEMn-MP) were precultured for 24 hrs, and then incubated with compounds for three days. We then added MTT (Roche) labeling reagent 10 μl to each well (final concentration 0.5 mg/ml) and incubated the microtiterplate for 4 hrs at 37° C., and under 5% CO2. After addition of 100 μl solubilisation solution into each well, the plate was allowed to stand overnight in the incubator (37° C., 5% CO2. The absorbance OD 550 nm was measured in an absorbance plate reader (ELX 800 BIO-TEK Instrument) and the data is shown in Table 1."}, "[2]": {"system": "Normal human melanocytes NHM (HEMn-MP)", "experiment": "Effect on melanogenesis, comparative example (melanin synthesis in cell culture)", "details": "for skin whitening activity (in words): at all three concentrations tested; for % melanin inhibition: 3 days, 405 nm", "experimental": "Normal human melanocytes NHM (HEMn-MP) were seeded in 96 well cell culture plates (20′000 cells per well) and grown to sub-confluence for three days in a 1:2 mixture of M2-Medium (Clonetics) and Promocell-Medium together ‘Culture medium’. Culture medium was exchanged with Culture Medium containing compound and melanogenesis progressed for another three days at a temperature of 37° C. and at 5% CO2 atmosphere. Including cell layer and culture supernatant total melanin was extracted using 1.7M KOH with shaking at 300 rpm for approximately 1 hour at RT. We measured melanin content at 405 nm in an absorbance plate reader. The experiment was done in triplicates. We used PTU as a positive control."}, "[3]": {"system": "Normal human melanocytes moderately pigmented (HEMn-MP)", "experiment": "Quantification of melanin synthesis in cell culture", "details": "3 days, baseline = 100, 405 nm", "experimental": "Normal human melanocytes moderately pigmented (HEMn-MP) were seeded in 96 well cell culture plates (20′000 cells per well) and grown to sub-confluence for three days in a 1:2 mixture of M2-Medium (Clonetics) and Promocell-Medium together ‘Culture medium’. Culture medium was exchanged with Culture Medium containing compound and melanogenesis progressed for another three days in an incubator at a temperature of 37° C. and at 5% CO2 atmosphere. Including cell layer and culture supernatant total melanin was extracted using 1.7M KOH with shaking at 300 rpm for approximately 1 hour at room temperature. We measured melanin content at 405 nm in an absorbance plate reader. We use phenylthiourea (PTU) as a positive control at a concentration of 0.0152% (1 mM). PTU is a tyrosinase inhibitor (Poma 1999) and is commonly used as a reference in cell pigmentation assays (see e.g. Le Pape 2008)."}, "[4]": {"system": "Human melanocytes moderately pigmented (HEMn-MP)", "experiment": "Cell-pellet depigmentation assay", "details": "scale 1 to 5 (5 = dark control cell pellet, 1 = very light brown cell pellet)", "experimental": "Human melanocytes moderately pigmented (HEMn-MP) were seeded in 6-well culture plates at a cell density of 2×10E5 cells/mL and preincubated for three days in a 1:2 mixture of M2-Medium (Clonetics) and Promocell-Medium together ‘Culture medium’ in an incubator at a temperature of 37° C. and at 5% CO2 Atmosphere. Culture medium was exchanged with Culture Medium containing compound and melanogenesis progressed for another three days in an incubator at same incubation conditions as described above. Compound dilutions were done in duplicates. Cells were harvested after trypsinization and pooled in eppendorf-tubes, centrifugated and supernatant removed. The remaining cell pellet was photographed and visually checked for whitening effects. The pellets were scored for their darkness in a scale 1 to 5 (5 corresponding to dark control cell pellet) and 1 corresponding to a very light brown cell pellet."}}, "data": [{"smiles": "COc1cc(C(=O)CO)cc(OC)c1O", "note": "[Danielone, 2-hydroxy-1-(4-hydroxy-3,5-dimethoxy-phenyl)-ethanone]", "values": [{"measurement": "Viability", "setting": "[1]; concentration 0.00025 %", "value": 112, "unit": "%"}, {"measurement": "Viability", "setting": "[1]; concentration 0.0025 %", "value": 113, "unit": "%"}, {"measurement": "Viability", "setting": "[1]; concentration 0.025 %", "value": 51, "unit": "%"}, {"measurement": "skin whitening activity (in words)", "setting": "[2]", "value": "very efficient"}, {"measurement": "% melanin inhibition", "setting": "[2]; concentration 0.0025%", "value": 1.51, "unit": "%"}, {"measurement": "% melanin inhibition", "setting": "[2]; concentration 0.005%", "value": "−40.20", "unit": "%"}, {"measurement": "% melanin inhibition", "setting": "[2]; concentration 0.01%", "value": "−49.25", "unit": "%"}, {"measurement": "Total melanin", "setting": "[3]; concentration 0.000625 %", "value": 104, "unit": "%"}, {"measurement": "Total melanin", "setting": "[3]; concentration 0.00125 %", "value": 75, "unit": "%"}, {"measurement": "Total melanin", "setting": "[3]; concentration 0.0025 %", "value": 66, "unit": "%"}, {"measurement": "Darkness level of the cell pellet", "setting": "[4]; 0.0025%", "value": 2}]}, {"smiles": "NC(=S)Nc1ccccc1", "note": "[PTU, phenylthiourea, reference compound]", "values": [{"measurement": "Total melanin", "setting": "[3]; concentration 0.0152 % (1 mM)", "value": 58, "unit": "%"}, {"measurement": "Darkness level of the cell pellet", "setting": "[4]; 0.0152%", "value": 1}]}, {"smiles": "COc1cc(C(=O)CCO)ccc1O", "note": "[beta-hydroxypropiovanillon, reference compound]", "values": [{"measurement": "skin whitening activity (in words)", "setting": "[2]", "value": "no activity"}, {"measurement": "% melanin inhibition", "setting": "[2]; concentration 0.0025%", "value": 7.45, "unit": "%"}, {"measurement": "% melanin inhibition", "setting": "[2]; concentration 0.005%", "value": 7.45, "unit": "%"}, {"measurement": "% melanin inhibition", "setting": "[2]; concentration 0.01%", "value": 4.26, "unit": "%"}]}]}
